Paper PMC4307180, “Overcoming myelosuppression due to synthetic lethal toxicity for FLT3-targeted acute myeloid leukemia therapy” (eLife, 2014)
“Also recorded” adds a separate entry of the source.

Tests used:
Ba/F3 FLT3 ITD + D835Y = experiment: Ba/F3 cell viability, FLT3 ITD + D835Y; assay type: cell-based; details: Mus musculus, Ba/F3, 48 hr, ± SEM
Method: (§1) Stable Ba/F3 lines were generated by retroviral spinfection with the appropriate mutated plasmid as previously described ([Smith et al., 2012]).
(§2) Exponentially growing cells (5 × 10^3 cells per well) were plated in each well of a 96-well plate with 0.1 ml of RPMI 1640 + 10% (vol/vol) FCS containing the appropriate concentration of drug in triplicate, and cell viability was assessed after 48 hr as previously described ([Smith et al., 2012]). […] Log10-scale transformation of ratios, followed by conditional formatting using xcel spreadsheet software yielded the colored diagrams shown.
(§3) Mutations isolated in the screen were engineered into pMSCVpuroFLT3–ITD by QuikChange mutagenesis (Stratagene, La Jolla, CA) as previously described ([Smith et al., 2012]).

[1] = test system: mpo+ myeloid cells in zebrafish embryos; experiment: Zebrafish normal myelopoiesis, mpo WISH in posterior blood island; assay type: in vivo, Danio rerio (zebrafish); details: 10 μM, 6 to 30 hpf, read at 30 hpf, vs DMSO
Method: Figure 4. […] (N–P) Three categories of mpo transcription (N, normal; O, intermediate; P, severe) were defined based on the WISH results (three experiments). […] Scale bar equals 500 μm. Blue arrows indicate the pericardial edema, green arrows indicate tail shortening and curving, and red arrows indicate the FLT3-ITD AML mpo+ myeloid cells expansion. […] For all experiments: Zebrafish embryos were collected and kept in standard E3 medium at 28°C. Different concentrations of either drug were added to the E3 medium from 6 hr post fertilization (hpf) to 3 days post fertilization (dpf). Embryos treated with DMSO or 10 μM drug from 6 to 30 hpf were collected for mpo whole mount in situ hybridization (WISH) analysis. […] plasmid DNA containing FLT3/ITD sequence was microinjected into one-cell stage embryos, and the uninjected embryos were used as control. FLT3/ITD-injected embryos were treated with DMSO or 10 μM drug from 6 to 30 hpf.
Wild-type (WT) zebrafish were maintained under standard conditions, and embryos were staged as described ([He et al., 2014]). The study was approved by the Committee of the Use of Live Animals for Teaching and Research in The University of Hong Kong.

[2] = test system: primary patient FLT3-ITD+ AML circulating blasts; experiment: Colony-forming assay, primary patient FLT3-ITD+ AML blasts; assay type: cell-based, human
Excerpt: (§4) Primary AML blood samples and/or marrow aspirates were obtained on an IRB-approved protocol at the University of California, San Francisco. Informed consent was obtained in accordance with the Declaration of Helsinki. Mononuclear cells were purified by density centrifugation (Ficoll–Paque Plus, GE Healthsciences) before cryopreservation in 10% (vol/vol) DMSO or FCS (primary ITD and D835-mutant assays, Figure 3A–C) or immediate use in assays (Normal BM and SPB, Figure 3D–F). Normal BM and stimulated peripheral blood (SPB) samples were collected from donors at the UCSF oncology/hematology division. Cells were then suspended in MethoCult methylcellulose (Stem Cell Technologies, product no. H4435 Enriched, Canada) in 15-ml Falcon tubes, vigorously vortexed, bubbles settled over 10 min. Triplicates then plated via blunt-nosed syringe (1.1 ml each) into 3-cm dishes, avoiding bubble generation, and each dish placed in a larger 10-cm dish with water trough in an incubator (37°C, 5% CO2) for 13–14 days. Colonies were counted individually using traditional microscopy. CFU and BFU types reported separately (CFU-GEMM colonies counted as one of each).

Ba/F3 FLT3 ITD + D835H = experiment: Ba/F3 cell viability, FLT3 ITD + D835H; assay type: cell-based; details: Mus musculus, Ba/F3, 48 hr, ± SEM
Method: as §1, §2, §3

HMC1.1 cells (KIT V560G) = experiment: Cell proliferation/viability assay, HMC1.1; assay type: cell-based, human
Method: as §2

[3] = test system: normal bone marrow (BM) and stimulated peripheral blood (SPB) hematopoietic progenitors; experiment: Colony-forming assay, normal BM and stimulated peripheral blood; assay type: cell-based, human
Excerpt: as §4, with “each). Results shown for FLT3 ITD primary blasts (Figure 3B) are a combination of leukemic blast colonies and BFU colonies.” for “each).”

Ba/F3 FLT3 ITD + Y693C = experiment: Ba/F3 cell viability, FLT3 ITD + Y693C; assay type: cell-based; details: Mus musculus, Ba/F3, 48 hr, ± SEM
Method: as §1, §2, §3

IC50 (Ba/F3 FLT3 ITD + D835Y): 39 ± 24 nM
IC50 (Ba/F3 FLT3 ITD + D835H): 48 ± 29 nM
raw colony numbers, normal BM, BFUs ([3]; all Star 27-treated conditions): ca. 400
raw colony numbers, normal BM, CFUs ([3]; all Star 27-treated conditions): ca. 300
IC50 (Ba/F3 FLT3 ITD + Y693C): 279 ± 36 nM
Structure (SMILES): CC1NC(=O)c2c1c1c3ccccc3n(CCCN)c1c1[nH]c3ccccc3c21 (centres unmarked) [Star 27]
effect on mpo+ myeloid cells development in the PBI [1]: no statistically significant change; also recorded: non-significant difference
inhibition at 1 µM ([2]; Homo sapiens, at 1000 nM, read-out: inhibition of colony formation, FLT3-ITD+ blasts): > 80%
raw colony numbers, FLT3-ITD+ blasts ([2]; at 1,000 nM, ca. 1,200 CFUs in DMSO plates): ca. 20
IC50 (HMC1.1 cells (KIT V560G); Homo sapiens, Kit V560 G, 48 hr, ± SEM): > 5000 nM
selectivity window HMC1.1/MV4;11 (HMC1.1 cells (KIT V560G); ratio of proliferation IC50s): > 122 fold
effect on normal hematopoietic colony formation (CFU and BFU) ([3]; normal BM and SPB donors, up to 1,000 nM): no effect on hematopoiesis up to 1,000 nM; also recorded: no significant effect up to a concentration of 1,000 nM
